Entries after “also recorded” stand apart in the source; their conditions may differ.
Assays:
[1] = unmodified precursor dye; cited from earlier work
[2] = Solubility of the dyes in water, mineral oil and organic solvents; assay type: physicochemical; details: for solubility in organic solvents: which solvents dissolve the dye
[3] = Stability of kaolin pigment powder in oil and in water; assay type: physicochemical; details: product deposited on kaolin; oil / mineral oil and water
Protocol: A small amount of the product was dissolved in acetone (10 mg in 20 mL), which was slowly added to kaolin (10 g). The solution was heated to 30° C. and the solvent allowed to slowly evaporate with mixing.
A small amount of the product was dissolved in methylene chloride (50 mg in 30 mL), which was slowly added to kaolin (5 g). The suspension was heated to 30° C. and the solvent allowed to slowly evaporate with mixing.

Cc1cc2nc3ccc(N(C)C)cc3[s+]c2cc1N.[Cl-] [toluidine blue O]
solubility in water of the precursor dye [1]: water soluble

N=C1C=CC(=C(c2ccc(N)cc2)c2ccc(N)cc2)C=C1 [pararosaniline]
solubility in water of the precursor dye [1]: water soluble

CCCCCCCCOc1nc(Nc2cc3sc4cc(=[N+](C)C)ccc-4nc3cc2C)nc(N(c2ccccc2)c2ccccc2)n1 [Compound I]
solubility in acetone, alcohol, and chlorinated solvents [2]: show solubility | solubility in methanol ([2]; methanol): soluble | solubility in mineral oil [2]: insoluble | solubility in water [2]: insoluble | stability of the resulting powder in oil and in water [3]: stable in oil and in water

CC1CCC(Oc2nc(Nc3ccc(CO)cc3)nc(OC3CCC(C)CC3C(C)C)n2)C(C(C)C)C1 (stereo not shown) [Compound III]
solubility in organic solvents [2]: soluble only in alcohol or acetone | stability of the resulting powder in oil and in water [3]: stable in water and in mineral oil

CC1CCC(Oc2nc(Oc3ccc4c(-c5ccccc5C(=O)O)c5ccc(=O)cc-5oc4c3)nc(OC3CCC(C)CC3C(C)C)n2)C(C(C)C)C1 (stereo not shown) [Compound IV]
solubility in acetone, alcohol, and chlorinated solvents [2]: dissolves | solubility in mineral oil [2]: insoluble | solubility in water [2]: not soluble | solubility in organic solvents [2]: soluble only in alcohol or acetone

O=C1OC2(c3ccc(O)cc3Oc3cc(O)ccc32)c2ccccc21 [fluorescein]
solubility in water of the precursor dye [1]: soluble in water

C=Cc1ccc(Nc2nc(OCCCCCCCC)nc(Oc3ccc(C(c4ccccc4)(c4ccccc4)c4ccccc4)cc3)n2)cc1 [Compound II]
solubility in acetone, alcohol, and chlorinated solvents [2]: show solubility | solubility in mineral oil [2]: insoluble | solubility in water [2]: insoluble | solubility in organic solvents [2]: solubility only to dichloromethane and toluene; also recorded: only soluble in boiling toluene or dichloromethane | solubility in organic solvents ([2]; listed as Example 2): insoluble to common organic solvents, except for hot dichloromethane and toluene
